SMILES strings stand for the structures.

By Cmax is commonly meant the maximum level reached in the sampled fluid or tissue. The term AUC denotes concentration integrated over time. Low readings indicate low exposure, high ones high exposure. Broadly, the bioavailability is the share of a dose that reaches the circulation, judged against a reference dose that is usually intravenous.

Data set [1] can be described thus: Cmax in rat at 10 mg/kg, po. The format is ADME, organism-based. More on the design: dose 10 mg/kg, route oral. The settings on record: in vivo.
The next data set concerns Rattus norvegicus. Put plainly: Volume of distribution at steady state in rat at 10 mg/kg, po. The format is ADME, organism-based. The settings on record: in vivo. The arrangement: dose 10 mg/kg, route oral.
Data set [2] in a line: Drug level in rat brain at 10 mg/kg, po after 150 mins. The data set is classed as ADME, organism-based. The arrangement: dose 10 mg/kg, route oral. The settings on record: read-out: Drug uptake.
Data set [3] is described as follows: Plasma concentration in Sprague-Dawley rat at 1 to 30 mg/kg, po after 4 hrs. The data set is classed as ADME, organism-based. More on the design: dose 1-30 mg/kg, route oral.
Data set [4] in a line: Drug level in rat brain at 3 mg/kg, po after 150 mins. The format is ADME, organism-based. More on the design: dose 3 mg/kg, route oral. The settings on record: read-out: Drug uptake.
Data set [5] can be described thus: AUC in rat at 10 mg/kg, po. The data set is classed as ADME, organism-based. As to conditions: plasma. The arrangement: dose 10 mg/kg, route oral.
Data set [6] can be described thus: Drug level in rat plasma at 5.6 mg/kg, po after 150 mins. The data set is classed as ADME, organism-based. The arrangement: dose 5.6 mg/kg, route oral. As to conditions: read-out: Drug uptake.
Data set [7] is described as follows: Drug level in rat plasma at 10 mg/kg, po after 150 mins. The data set is classed as ADME, organism-based. More on the design: dose 10 mg/kg, route oral. The settings on record: read-out: Drug uptake.
Data set [8] concerns Canis familiaris. Put plainly: Oral bioavailability in dog at 10 mg/kg. As to conditions: in vivo.
Data set [9] can be described thus: Drug level in rat brain at 5.6 mg/kg, po after 150 mins. The data set is classed as ADME, organism-based. The arrangement: dose 5.6 mg/kg, route oral. The settings on record: read-out: Drug uptake.
Data set [10] is described as follows: Volume of distribution at steady state in rat at 2 mg/kg, iv. The data set is classed as ADME, organism-based. As to conditions: in vivo, read-out: Vdss. The arrangement: dose 2 mg/kg, route intravenous.
The subject of data set [11] is Canis familiaris. Put plainly: AUC in dog at 10 mg/kg, po. The settings on record: in vivo.
A short description of data set [12]: Cmax in dog at 10 mg/kg, po. The settings on record: in vivo.
Data set [13] in a line: Plasma concentration in guinea pig at 10 mg/kg, iv after 5 mins. More on the design: dose 10 mg/kg, route intravenous. The format is ADME, organism-based, Cavia porcellus.
Data set [14] in a line: Oral bioavailability in rat at 10 mg/kg. The format is ADME, organism-based. The settings on record: in vivo.
A short description of data set [15]: Drug level in rat plasma at 3 mg/kg, po after 150 mins. The data set is classed as ADME, organism-based. The settings on record: read-out: Drug uptake. The arrangement: dose 3 mg/kg, route oral.
A short description of data set [16]: Volume of distribution at steady state in dog at 2 mg/kg, iv. The data set is classed as ADME, organism-based, Canis lupus familiaris. The settings on record: in vivo, read-out: Vdss. More on the design: dose 2 mg/kg, route intravenous.

With `FC(F)(F)c1ccccc1-c1ccc2nc(C3=NOC4(CCCCC4)C3)[nH]c2c1`, the highest level in data set [1] (Cmax) was 230 ng/mL. The same molecule had a Vdss with Rattus norvegicus of 13.6 L/kg.
Consider `FC(F)(F)c1ccccc1-c1cc(C(F)(F)F)c2[nH]c(C3=NOC4(CCCCC4)C3)nc2c1`, for which the concentration at […] was found to be 638 ng/g in [2]; 175 ng/g in data set [4]; 662 ng/mL in [6]; 1040 ng/mL in data set [7]; 414 ng/g in data set [9]; 295 ng/mL in [15]. This molecule also came in with a concentration at 4 h in data set [3] of 254 ng/mL. Also, the AUC in [5] was 12300 ng·h/mL; in the data set with Canis familiaris [11], 5252 ng·h/mL. This molecule also displayed a F in the data set with Canis familiaris [8] of 45%. The values for the Cmax in data set [1] and in data set [12] were 1260 ng/mL and 1640 ng/mL, respectively. In addition, the Vd in data set [10] was 2.92 L/kg; in data set [16], 4.43 L/kg. This molecule also came in with a concentration at 5 min in [13] of 18200 ng/mL. In [14], this molecule had a bioavailability of 96%.

Values taken from ChEMBL document CHEMBL1649073, “Design and optimization of benzimidazole-containing transient receptor potential melastatin 8 (TRPM8) antagonists” (J Med Chem, 2011).
